The structures appear in SMILES notation. Residues, ends and D or L forms follow the SMILES beside them. Bounds are passed on as bounds.

In experiment [1] the test system is E. coli BL21 (DE3)/pET30a-NDM-1. The experiment can be described thus: MIC of β-lactam antibiotics by E-test method. Type of experiment: cell-based. Particulars: Escherichia coli, 24 h. As to the method:
(§1) E. coli BL21(DE3) cells were transformed with the pET30a plasmid encoding the NDM-1 gene (Gen Bank ID: HQ162469). E. coli BL21(DE3)/pET30a-NDM-1 was grown overnight at 37°C in liquid Luria-Bertani (LB) broth containing 50μg/ml kanamycin, 100μg/ml ampicillin and 50μM Zn(NO3)2 to select for E. coli clones containing the plasmid of pET30a-NDM-1. Two strains, E. coli BL21 (DE3)/pET30a-NDM-1 overexpressing NDM-1 and P. aeruginosa isolated from Renmin Hospital of Wuhan University with blaNDM-1 confirmed by PCR (data not shown), were cultured overnight, respectively. The cultures were diluted 1:100, grown to an optical density at 600 nm (OD600) of ~0.6, and spread onto LB agar. After naturally drying for five minutes, E-test strips (AB Biodisk, Solna, Sweden) were applied to the ~150mm Mueller-Hinton (MH) (Tianhe Microbial Agents, Hangzhou, China) agar plates and grown for 24h at 35°C to 37°C without further intervention. The antibiotic strips respectively containing penicillin G, ampicillin, cephalothin, cefuroxime, ceftazidime, cefepime, meropenem, ertapenem, aztreonam were used for testing susceptibility. The results were obtained in accordance with the Clinical and Laboratory Standards Institute (CLSI) guidelines.

Experiment [2] has as its system P. aeruginosa with blaNDM-1. The experiment can be described thus: MIC of β-lactam antibiotics by E-test method. Type of experiment: cell-based. Particulars: Pseudomonas aeruginosa, 24 h. How it is done: as §1
For experiment [3], the system named is E. coli BL21 (DE3)/pET30a. The experiment can be described thus: MIC of β-lactam antibiotics by E-test method. Type of experiment: cell-based. Particulars: Escherichia coli, 24 h.
In the next experiment the test system is E. coli BL21 (DE3). The experiment can be described thus: MIC of β-lactam antibiotics by E-test method. Type of experiment: cell-based. The following applies: Escherichia coli, 24 h.
Experiment [4] concerns E. coli BL21 (DE3)/pET30a-NDM-1. The experiment can be described thus: Synergistic antibacterial effect of ertapenem combined with oligopeptide (twofold broth dilution). Type of experiment: cell-based. Particulars: ertapenem alone at 256 μg/ml; NDM-1 strain. How it is done:
E. coli BL21 (DE3)/pET30a-NDM-1 overexpressing NDM-1 and a clinical isolate of P. aeruginosa with blaNDM-1 were also utilized to evaluate the bioactivities of oligopeptides, which reversed NDM-1-mediated β-lactam antibiotics resistance. Determination of antibacterial synergy was performed using a serial twofold dilutions method recommended by CLSI guidelines. E. coli BL21 (DE3)/pET30a was used as a control in the experiment. Minimum inhibitory concentrations (MICs) of the agents were determined by the twofold serial dilution with Mueller-Hinton (MH) broth (Shifeng Biotech Corp., Shanghai, China). For this assay, E. coli BL21 (DE3)/pET30a-NDM-1 was grown overnight in MH broth media containing 50μg/ml kanamycin at 37°C [23]. β-lactam antibiotic and oligopeptide at various concentrations were added to 120μL broth media of a 1:20 dilution of the overnight culture, resulting the final volume of 150μL [24]. The growth of bacterial cultures was set up in 96-well microplates, which incubated at 37°C with constant shaking continuously for 18 h and a reading at 630 nm was taken to determine the MICs of synergistic effect. The lowest antibiotic concentration preventing visible growth was deemed to be the MIC value. […] Every data of reading was repeated thrice, and each experiment mentioned above was performed at least two times.
Background: In broth dilution the organism is exposed to a series of concentrations in liquid medium.

The target in a further experiment is full-length NDM-1 (Klebsiella pneumoniae, UniProt C7C422). The experiment can be described thus: biochemical. Particulars: IC50 (Mean±SD), full-length NDM-1, ertapenem 80 μM as substrate, 15 min pre-incubation at 35°C. As to the method: The full-length NDM-1 enzyme was expressed and purified by a method from a previously published procedure. All the oligopeptides were synthesized by GL Biochem. (Shanghai), Ltd., China, with a purity of >95%. The target of NDM-1 enzyme was pre-incubated with the desired oligopeptide for 15min at 35°C before the assay by adding the inhibitor. The oligopeptides used for testing were dissolved in 10mM phosphate-buffered saline (PBS) buffer (pH7.0), containing dimethyl sulfoxide (DMSO) with the final concentration of 0.25% (V/V). […] Ertapenem (80μM) was used as report substrate. The hydrolysis of the substrate by the NDM-1 was detected by monitoring the variation in absorbance resulting from the opening of the β-lactam ring. All the determinations were made on a spectrophotometer (UV-1750, Shimadzu, Japan) connected to a personal computer. The enzymatic reactions were carried out in a total volume of 100μL. The reaction buffer contained 20mM HEPES buffer, pH7.3, 0.25M NaCl, 1mM 1,4-Dithio-DL-threitol (DTT) (Beinglay Biotech Corp., Wuhan, China), 50μM Zn(NO3)2 and 10mg/ml bovine serum albumin (BSA) preventing NDM-1 denaturation. The ultraviolet (UV) absorbance detector was set at 300 nm, a λ max for ertapenem. The IC50 values were determined more than three times by fitting the concentration dependence of residual enzyme activity to the nonlinear regression (curve fit) using GraphPad Prism (GraphPad Software, La Jolla, America).
full-length NDM-1, sequence (C7C422 29-270 limits assumed): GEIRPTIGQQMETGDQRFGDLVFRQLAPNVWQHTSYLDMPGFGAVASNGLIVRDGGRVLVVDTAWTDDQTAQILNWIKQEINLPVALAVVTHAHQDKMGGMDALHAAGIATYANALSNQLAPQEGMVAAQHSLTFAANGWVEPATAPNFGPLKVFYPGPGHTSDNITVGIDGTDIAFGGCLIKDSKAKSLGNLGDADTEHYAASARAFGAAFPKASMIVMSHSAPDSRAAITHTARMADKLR

Broadly, the MIC is the lowest concentration that inhibits growth of the organism. In the case of `CC1(C)S[C@@H]2[C@H](NC(=O)[C@H](N)c3ccccc3)C(=O)N2[C@H]1C(=O)O` [Ampicillin], the MIC in experiment [1] was greater than 256 µg/mL; in experiment [2] it was greater than 256 µg/mL; in experiment [3], 8 µg/mL; with E. coli BL21 (DE3) it was 6 µg/mL.
Take `C[C@H]1[C@H](NC(=O)/C(=N\OC(C)(C)C(=O)O)c2csc(N)n2)C(=O)N1S(=O)(=O)O` [Aztreonam]: the MIC was greater than 256 µg/mL in experiment [1], greater than 256 µg/mL in experiment [2], 0.064 µg/mL in experiment [3] and 0.047 µg/mL with E. coli BL21 (DE3).
With `CO/N=C(\C(=O)N[C@@H]1C(=O)N2C(C(=O)[O-])=C(C[N+]3(C)CCCC3)CS[C@H]12)c1csc(N)n1` [Cefepime], the MIC in experiment [1] is greater than 64 µg/mL; in experiment [2], greater than 64 µg/mL; in experiment [3], 0.08 µg/mL; in the experiment with E. coli BL21 (DE3) it was 0.08 µg/mL.
Consider `CO/N=C(\C(=O)N[C@@H]1C(=O)N2C(C(=O)O)=C(COC(C)=O)CS[C@H]12)c1csc(N)n1` [Cefotaxime], for which the MIC in experiment [1] was greater than 256 µg/mL; in experiment [2] it was greater than 256 µg/mL; in experiment [3], 0.25 µg/mL; with E. coli BL21 (DE3), 0.125 µg/mL.
Take `CC(C)(O/N=C(\C(=O)N[C@@H]1C(=O)N2C(C(=O)[O-])=C(C[n+]3ccccc3)CS[C@H]12)c1csc(N)n1)C(=O)O` [Ceftazidime]: the MIC in experiment [1] is greater than 256 µg/mL; in experiment [2], greater than 256 µg/mL; in experiment [3], 0.25 µg/mL; in the experiment on E. coli BL21 (DE3) it was 0.38 µg/mL.
Consider `CO/N=C(\C(=O)N[C@@H]1C(=O)N2C(C(=O)O)=C(COC(N)=O)CS[C@H]12)c1ccco1` [Cefuroxime], for which the MIC in experiment [1] is greater than 256 µg/mL; in experiment [2], 256 µg/mL; in experiment [3], 3 µg/mL; in the experiment on E. coli BL21 (DE3), 2 µg/mL.
Turning to `CC(=O)OCC1=C(C(=O)O)N2C(=O)[C@@H](NC(=O)Cc3cccs3)[C@H]2SC1` [Cephalothin], the MIC is greater than 256 µg/mL in experiment [1], greater than 256 µg/mL in experiment [2], 4 µg/mL in experiment [3] and 6 µg/mL in the experiment on E. coli BL21 (DE3).
Take `C[C@@H](O)[C@H]1C(=O)N2C(C(=O)O)=C(S[C@@H]3CN[C@H](C(=O)Nc4cccc(C(=O)O)c4)C3)[C@H](C)[C@H]12` [Ertapenem]: the MIC in experiment [1] was greater than 32 µg/mL; in experiment [2], greater than 32 µg/mL; in experiment [3], 0.094 µg/mL; in the experiment on E. coli BL21 (DE3), 0.094 µg/mL. In addition, in experiment [4], the “growth in broth media containing ertapenem” value is reported as “still able to grow”.
On to `C[C@@H](O)[C@H]1C(=O)N2C(C(=O)O)=C(S[C@@H]3CN[C@H](C(=O)N(C)C)C3)[C@H](C)[C@H]12` [Meropenem], for which the MIC in experiment [1] is greater than 32 µg/mL; in experiment [2], greater than 32 µg/mL; in experiment [3] it was 0.047 µg/mL; in the experiment on E. coli BL21 (DE3), 0.032 µg/mL.
The term IC50 denotes the concentration that gives 50% inhibition. A higher IC50 goes with weaker potency in that assay. `N[C@@H](CS)C(=O)N[C@@H](Cc1c[nH]cn1)C(=O)O` [Oligopeptide 1, Cys-His] (H-Cys-His-OH) registered an IC50 at full-length NDM-1 of 182 ± 14 µM.
Still for that read-out and setting: next, `N[C@@H](CS)C(=O)N[C@@H](Cc1ccccc1)C(=O)O` [Oligopeptide 2, Cys-Phe] (H-Cys-Phe-OH): 113 ± 9 µM.
Still for that read-out and setting: next, `N[C@@H](CS)C(=O)N[C@@H](Cc1ccc(O)cc1)C(=O)O` [Oligopeptide 3, Cys-Tyr] (H-Cys-Tyr-OH): greater than 300 µM; `CC(C)[C@H](NC(=O)[C@@H](N)CS)C(=O)O` [Oligopeptide 4, Cys-Val] (H-Cys-Val-OH): 235 ± 18 µM.
Turning to `N[C@@H](CS)C(=O)N[C@@H](CC(=O)O)C(=O)O` [Oligopeptide 5, Cys-Asp] (H-Cys-Asp-OH), on full-length NDM-1, half-maximal inhibition (IC50) was put at 68 ± 5 µM. This IC50 lies about 3.5-fold lower than the previous one.
With `N[C@@H](CS)C(=O)NCC(=O)N[C@@H](Cc1c[nH]cn1)C(=O)O` [Oligopeptide 6, Cys-Gly-His] (H-Cys-Gly-His-OH), half-maximal inhibition on full-length NDM-1 (IC50) was put at 263 ± 21 µM.
The same measure, in the same setting: under `N[C@@H](CS)C(=O)NCC(=O)N[C@@H](Cc1ccccc1)C(=O)O` [Oligopeptide 7, Cys-Gly-Phe] (H-Cys-Gly-Phe-OH) stands 144 ± 13 µM; under `N[C@@H](CS)C(=O)NCC(=O)N[C@@H](Cc1ccc(O)cc1)C(=O)O` [Oligopeptide 8, Cys-Gly-Tyr] (H-Cys-Gly-Tyr-OH), greater than 300 µM.
Regarding `CC(C)[C@H](NC(=O)CNC(=O)[C@@H](N)CS)C(=O)O` [Oligopeptide 9, Cys-Gly-Val] (H-Cys-Gly-Val-OH), inhibition at full-length NDM-1 was half-maximal at 249 ± 21 µM (IC50).
Still for that read-out and setting: under `N[C@@H](CS)C(=O)NCC(=O)N[C@@H](CC(=O)O)C(=O)O` [Oligopeptide 10, Cys-Gly-Asp] (H-Cys-Gly-Asp-OH) stands greater than 300 µM.
With `CC1(C)S[C@@H]2[C@H](NC(=O)Cc3ccccc3)C(=O)N2[C@H]1C(=O)O` [Penicillin G], the MIC in experiment [1] was greater than 32 µg/mL; in experiment [2] it was greater than 32 µg/mL; in experiment [3] it was 12 µg/mL; in the experiment with E. coli BL21 (DE3) it was 12 µg/mL.
